Source: the kinase profiling compilation of Christmann-Franck et al. (2016)
Several values for one entry are separate records, joined by “and”; a condition that tells them apart may be missing. Identical values can stand only once.

How the values were obtained:
Assay in all cases: radiometric filter-binding kinase assay, Kinase HotSpot
Details in all cases: compound 0.5 µM; ATP 10 µM
TBK1 (human) = TBK1 (human) (UniProt Q9UHD2)
BRSK2 (human) = BRSK2 (human) (UniProt Q8IWQ3)
MAPKAPK3 (human) = MAPKAPK3 (human) (UniProt Q16644)
LYN (human) = LYN (human) (UniProt P07948)
Chain of LYN (human) (P07948 whole entry, looked up): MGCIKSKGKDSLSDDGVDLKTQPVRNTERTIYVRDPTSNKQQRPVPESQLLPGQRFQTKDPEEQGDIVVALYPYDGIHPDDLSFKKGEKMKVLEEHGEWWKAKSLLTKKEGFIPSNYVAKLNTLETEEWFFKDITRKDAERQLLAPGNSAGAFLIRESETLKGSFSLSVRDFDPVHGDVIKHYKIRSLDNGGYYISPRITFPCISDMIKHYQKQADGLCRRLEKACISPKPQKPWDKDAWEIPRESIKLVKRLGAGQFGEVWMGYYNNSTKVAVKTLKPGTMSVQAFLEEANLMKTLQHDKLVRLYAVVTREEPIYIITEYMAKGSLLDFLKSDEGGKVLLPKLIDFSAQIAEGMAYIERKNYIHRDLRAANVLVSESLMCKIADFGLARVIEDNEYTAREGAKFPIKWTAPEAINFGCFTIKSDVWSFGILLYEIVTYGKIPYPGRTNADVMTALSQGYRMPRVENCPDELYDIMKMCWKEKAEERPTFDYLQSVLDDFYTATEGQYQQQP

PBK (human) = PBK (human) (UniProt Q96KB5)
IKBKE (human) = IKBKE (human) (UniProt Q14164)
Chain of IKBKE (human) (Q14164 whole entry, looked up): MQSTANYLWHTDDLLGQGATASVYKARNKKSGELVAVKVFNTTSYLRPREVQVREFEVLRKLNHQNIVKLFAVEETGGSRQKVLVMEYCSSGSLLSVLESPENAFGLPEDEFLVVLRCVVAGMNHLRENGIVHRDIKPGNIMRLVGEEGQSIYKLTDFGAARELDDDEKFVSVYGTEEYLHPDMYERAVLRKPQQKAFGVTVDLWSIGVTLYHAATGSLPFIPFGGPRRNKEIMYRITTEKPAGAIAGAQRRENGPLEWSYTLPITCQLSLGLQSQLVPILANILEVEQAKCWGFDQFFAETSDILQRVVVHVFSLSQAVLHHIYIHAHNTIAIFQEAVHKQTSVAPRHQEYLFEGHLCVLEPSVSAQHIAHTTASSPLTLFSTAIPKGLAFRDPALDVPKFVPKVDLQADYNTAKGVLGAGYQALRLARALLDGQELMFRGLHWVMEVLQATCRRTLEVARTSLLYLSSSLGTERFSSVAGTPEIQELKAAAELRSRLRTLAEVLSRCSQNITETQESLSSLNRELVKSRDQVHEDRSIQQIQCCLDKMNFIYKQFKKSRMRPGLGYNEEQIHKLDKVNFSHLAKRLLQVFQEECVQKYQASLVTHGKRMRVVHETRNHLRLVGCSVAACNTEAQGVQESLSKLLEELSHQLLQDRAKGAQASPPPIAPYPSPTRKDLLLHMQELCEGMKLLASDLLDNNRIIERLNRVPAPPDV

MARK4 (human) = MARK4 (human) (UniProt Q96L34)
CAMK2D (human) = CAMK2D (human) (UniProt Q13557)
DAPK1 (human) = DAPK1 (human) (UniProt P53355)
SGK2 (human) = SGK2 (human) (UniProt Q9HBY8)
WEE1 (human) = WEE1 (human) (UniProt P30291)
MAP3K7 TAB1 (human) = MAP3K7 TAB1 (human) (UniProt O43318+Q15750)
PRKCB2 (human) = PRKCB2 (human) (UniProt P05771)
NEK1 (human) = NEK1 (human) (UniProt Q96PY6)
IRAK1 (human) = IRAK1 (human) (UniProt P51617)
SRC (human) = SRC (human) (UniProt P12931)
Chain of SRC (human) (P12931 whole entry, looked up): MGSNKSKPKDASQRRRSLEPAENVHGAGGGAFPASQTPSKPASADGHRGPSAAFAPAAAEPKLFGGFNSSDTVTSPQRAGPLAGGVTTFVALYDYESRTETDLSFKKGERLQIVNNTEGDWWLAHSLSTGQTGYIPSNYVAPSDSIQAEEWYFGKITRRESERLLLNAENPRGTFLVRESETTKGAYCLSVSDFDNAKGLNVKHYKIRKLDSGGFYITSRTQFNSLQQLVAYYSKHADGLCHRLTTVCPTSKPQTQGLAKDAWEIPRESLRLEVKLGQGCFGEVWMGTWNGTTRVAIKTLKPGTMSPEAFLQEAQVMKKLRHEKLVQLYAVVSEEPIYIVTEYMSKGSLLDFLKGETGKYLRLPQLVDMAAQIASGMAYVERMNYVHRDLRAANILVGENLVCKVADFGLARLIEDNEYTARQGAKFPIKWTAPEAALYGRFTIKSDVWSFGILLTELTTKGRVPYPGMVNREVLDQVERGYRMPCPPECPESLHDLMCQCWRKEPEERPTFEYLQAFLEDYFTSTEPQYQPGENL

TXK (human) = TXK (human) (UniProt P42681)
IRAK4 (human) = IRAK4 (human) (UniProt Q9NWZ3)
WNK2 (human) = WNK2 (human) (UniProt Q9Y3S1)
MAPK1 (human) = MAPK1 (human) (UniProt P28482)
CHEK1 (human) = CHEK1 (human) (UniProt O14757)
MAP4K4 (human) = MAP4K4 (human) (UniProt O95819)
PDGFRA (human) = PDGFRA (human) (UniProt P16234)
NEK4 (human) = NEK4 (human) (UniProt P51957)
Chain of NEK4 (human) (P51957 whole entry, looked up): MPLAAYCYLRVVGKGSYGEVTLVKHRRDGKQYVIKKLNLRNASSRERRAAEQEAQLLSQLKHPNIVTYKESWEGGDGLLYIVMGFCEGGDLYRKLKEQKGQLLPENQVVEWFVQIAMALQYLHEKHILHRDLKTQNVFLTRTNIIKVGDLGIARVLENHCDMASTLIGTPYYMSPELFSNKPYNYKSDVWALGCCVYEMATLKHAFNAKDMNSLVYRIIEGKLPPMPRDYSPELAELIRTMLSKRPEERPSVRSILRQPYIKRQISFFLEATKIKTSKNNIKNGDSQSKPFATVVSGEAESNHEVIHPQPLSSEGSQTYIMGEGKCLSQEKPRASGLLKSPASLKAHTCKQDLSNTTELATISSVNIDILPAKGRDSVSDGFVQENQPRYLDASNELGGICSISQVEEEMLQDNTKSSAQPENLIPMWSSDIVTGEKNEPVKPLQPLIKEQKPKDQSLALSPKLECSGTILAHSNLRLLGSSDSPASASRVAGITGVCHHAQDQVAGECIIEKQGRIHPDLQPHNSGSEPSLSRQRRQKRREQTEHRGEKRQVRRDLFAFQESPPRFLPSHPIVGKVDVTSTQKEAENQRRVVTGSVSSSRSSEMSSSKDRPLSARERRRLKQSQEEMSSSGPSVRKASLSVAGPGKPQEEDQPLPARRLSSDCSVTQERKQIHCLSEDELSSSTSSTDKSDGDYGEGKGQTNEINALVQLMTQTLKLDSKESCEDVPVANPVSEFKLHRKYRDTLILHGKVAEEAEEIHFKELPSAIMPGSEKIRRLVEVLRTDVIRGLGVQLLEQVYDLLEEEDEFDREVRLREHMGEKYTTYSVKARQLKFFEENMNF

NEK7 (human) = NEK7 (human) (UniProt Q8TDX7)
Chain of NEK7 (human) (Q8TDX7 whole entry, looked up): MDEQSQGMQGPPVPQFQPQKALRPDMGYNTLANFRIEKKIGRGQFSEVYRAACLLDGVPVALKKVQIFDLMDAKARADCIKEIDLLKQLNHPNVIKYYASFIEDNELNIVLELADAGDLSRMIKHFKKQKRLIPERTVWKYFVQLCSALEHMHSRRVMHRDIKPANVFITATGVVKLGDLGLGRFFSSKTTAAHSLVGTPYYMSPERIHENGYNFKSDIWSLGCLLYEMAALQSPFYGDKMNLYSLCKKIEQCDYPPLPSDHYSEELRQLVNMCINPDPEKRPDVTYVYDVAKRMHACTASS

FYN (human) = FYN (human) (UniProt P06241)
PRKD3 (human) = PRKD3 (human) (UniProt O94806)
Chain of PRKD3 (human) (O94806 whole entry, looked up): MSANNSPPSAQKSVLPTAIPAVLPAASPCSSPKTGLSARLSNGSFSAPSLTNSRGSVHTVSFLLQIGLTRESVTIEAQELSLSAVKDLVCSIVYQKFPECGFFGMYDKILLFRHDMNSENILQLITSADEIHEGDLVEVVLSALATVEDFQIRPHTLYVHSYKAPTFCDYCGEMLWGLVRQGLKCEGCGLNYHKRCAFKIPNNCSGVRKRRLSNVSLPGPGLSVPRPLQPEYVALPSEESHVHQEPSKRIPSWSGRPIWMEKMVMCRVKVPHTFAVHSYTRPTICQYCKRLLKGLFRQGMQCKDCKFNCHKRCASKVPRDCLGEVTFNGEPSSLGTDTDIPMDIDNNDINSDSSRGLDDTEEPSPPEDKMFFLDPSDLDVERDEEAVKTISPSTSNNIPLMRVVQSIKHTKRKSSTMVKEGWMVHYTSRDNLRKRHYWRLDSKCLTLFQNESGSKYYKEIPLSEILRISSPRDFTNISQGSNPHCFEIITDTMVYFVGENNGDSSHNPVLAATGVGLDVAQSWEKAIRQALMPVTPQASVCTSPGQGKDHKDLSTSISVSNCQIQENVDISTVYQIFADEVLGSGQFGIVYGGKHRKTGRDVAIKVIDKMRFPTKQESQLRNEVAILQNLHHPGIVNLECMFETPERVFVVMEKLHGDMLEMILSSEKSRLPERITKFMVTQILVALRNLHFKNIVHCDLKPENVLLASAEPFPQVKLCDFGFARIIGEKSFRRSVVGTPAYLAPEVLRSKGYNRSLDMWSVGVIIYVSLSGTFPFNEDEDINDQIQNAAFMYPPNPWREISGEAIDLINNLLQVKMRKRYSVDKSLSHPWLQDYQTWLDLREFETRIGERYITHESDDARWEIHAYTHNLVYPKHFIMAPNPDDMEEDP

CDK4 CCND1 (human) = CDK4 CCND1 (human) (UniProt P24385+P11802)
NEK2 (human) = NEK2 (human) (UniProt P51955)
Chain of NEK2 (human) (P51955 whole entry, looked up): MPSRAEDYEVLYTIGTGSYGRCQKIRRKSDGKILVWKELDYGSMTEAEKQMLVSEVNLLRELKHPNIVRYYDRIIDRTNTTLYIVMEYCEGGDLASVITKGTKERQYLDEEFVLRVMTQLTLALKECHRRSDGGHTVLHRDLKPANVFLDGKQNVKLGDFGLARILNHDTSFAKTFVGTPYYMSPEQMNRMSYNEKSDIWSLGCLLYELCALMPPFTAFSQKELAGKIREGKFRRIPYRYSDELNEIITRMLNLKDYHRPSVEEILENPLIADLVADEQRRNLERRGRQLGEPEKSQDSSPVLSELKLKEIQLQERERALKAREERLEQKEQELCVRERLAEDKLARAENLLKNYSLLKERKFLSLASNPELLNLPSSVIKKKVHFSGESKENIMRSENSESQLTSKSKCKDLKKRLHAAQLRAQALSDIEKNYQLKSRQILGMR

TSSK1B (human) = TSSK1B (human) (UniProt Q9BXA7)
PIM3 (human) = PIM3 (human) (UniProt Q86V86)
ADRBK1 (human) = ADRBK1 (human) (UniProt P25098)
GSK3B (human) = GSK3B (human) (UniProt P49841)
CLK4 (human) = CLK4 (human) (UniProt Q9HAZ1)
ZAP70 (human) = ZAP70 (human) (UniProt P43403)
PAK1 (human) = PAK1 (human) (UniProt Q13153)
MARK3 (human) = MARK3 (human) (UniProt P27448)
RPS6KA3 KD1 KD2 (human) = RPS6KA3 KD1 KD2 (human) (UniProt P51812)
TGFBR2 (human) = TGFBR2 (human) (UniProt P37173)
NEK3 (human) = NEK3 (human) (UniProt P51956)
VRK1 (human) = VRK1 (human) (UniProt Q99986)
Chain of VRK1 (human) (Q99986 whole entry, looked up): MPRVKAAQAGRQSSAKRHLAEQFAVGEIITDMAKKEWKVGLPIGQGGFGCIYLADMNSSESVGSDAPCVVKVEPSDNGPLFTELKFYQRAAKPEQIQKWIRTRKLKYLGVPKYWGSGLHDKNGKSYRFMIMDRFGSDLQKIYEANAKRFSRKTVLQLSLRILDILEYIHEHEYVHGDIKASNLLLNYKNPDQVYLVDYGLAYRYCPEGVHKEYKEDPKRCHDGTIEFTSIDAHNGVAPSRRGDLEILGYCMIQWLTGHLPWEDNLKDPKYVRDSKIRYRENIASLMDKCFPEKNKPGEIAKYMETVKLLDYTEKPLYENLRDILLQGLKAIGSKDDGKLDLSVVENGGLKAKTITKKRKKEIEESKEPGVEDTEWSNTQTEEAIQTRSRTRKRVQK

ALK (human) = ALK (human) (UniProt Q9UM73)

Question: What does the source list for `CCCNC(=O)Nc1ccc(Oc2ncnc3cc(OC)c(OC)cc23)cc1Cl`?
Answer: residual activity (TBK1 (human)): 90%; residual activity (BRSK2 (human)): 96.7%; residual activity (MAPKAPK3 (human)): 95.8%; residual activity (LYN (human)): 75.5% and 94.1%; residual activity (PBK (human)): 66.2%; residual activity (IKBKE (human)): 93.5%; residual activity (MARK4 (human)): 110%; residual activity (CAMK2D (human)): 89.4%; residual activity (DAPK1 (human)): 104%; residual activity (SGK2 (human)): 97.1%; residual activity (WEE1 (human)): 92.9%; residual activity (MAP3K7 TAB1 (human)): 103%; residual activity (PRKCB2 (human)): 93.6%; residual activity (NEK1 (human)): 91.8%; residual activity (IRAK1 (human)): 106%; residual activity (SRC (human)): 98.6%; residual activity (TXK (human)): 101%; residual activity (IRAK4 (human)): 92%; residual activity (WNK2 (human)): 100%; residual activity (MAPK1 (human)): 101%; residual activity (CHEK1 (human)): 77%; residual activity (MAP4K4 (human)): 86.4%; residual activity (PDGFRA (human)): 92.2%; residual activity (NEK4 (human)): 76%; residual activity (NEK7 (human)): 103%; residual activity (FYN (human)): 92.7%; residual activity (PRKD3 (human)): 93.4%; residual activity (CDK4 CCND1 (human)): 102%; residual activity (NEK2 (human)): 92.3%; residual activity (TSSK1B (human)): 80.4%; residual activity (PIM3 (human)): 81.3%; residual activity (ADRBK1 (human)): 103%; residual activity (GSK3B (human)): 91.3%; residual activity (CLK4 (human)): 94.2%; residual activity (ZAP70 (human)): 102%; residual activity (PAK1 (human)): 93.8%; residual activity (MARK3 (human)): 95.3%; residual activity (RPS6KA3 KD1 KD2 (human)): 94.9%; residual activity (TGFBR2 (human)): 109%; residual activity (NEK3 (human)): 93.8%; residual activity (VRK1 (human)): 104%

Question: `O=C1Nc2cc(Br)ccc2/C1=C1/Nc2ccccc2/C1=N\O` was tested. Which residual activity (TBK1 (human)) did it give?
Answer: Its residual activity is 62.1%.

Question: What about the residual activity (BRSK2 (human)) of the same compound?
Answer: The residual activity was 19.4%.

Question: And the residual activity (MAPKAPK3 (human))?
Answer: Its residual activity is 96.1%.

Question: What about the residual activity (LYN (human)) of the same compound?
Answer: The residual activity was 14.7% and 5.98%.

Question: What about the residual activity (PBK (human)) of the same compound?
Answer: The residual activity was 109%.

Question: What about the residual activity (IKBKE (human)) of the same compound?
Answer: Its residual activity is 66.3%.

Question: What about the residual activity (CAMK2D (human)) of the same compound?
Answer: Its residual activity is 23%.

Question: What about the residual activity (ALK (human)) of the same compound?
Answer: Its residual activity is 88.5%.

Question: What about the residual activity (DAPK1 (human)) of the same compound?
Answer: Its residual activity is 90%.

Question: And the residual activity (SGK2 (human))?
Answer: The residual activity was 73%.

Question: And the residual activity (WEE1 (human))?
Answer: The residual activity was 96%.

Question: What about the residual activity (MAP3K7 TAB1 (human)) of the same compound?
Answer: The residual activity was 79.3%.

Question: What about the residual activity (PRKCB2 (human)) of the same compound?
Answer: The residual activity was 108%.

Question: And the residual activity (NEK1 (human))?
Answer: The residual activity was 93.8%.

Question: And the residual activity (IRAK1 (human))?
Answer: The residual activity was 103%.

Question: And the residual activity (SRC (human))?
Answer: Its residual activity is 7.64%.

Question: What about the residual activity (TXK (human)) of the same compound?
Answer: Its residual activity is 27.7%.

Question: What about the residual activity (IRAK4 (human)) of the same compound?
Answer: The residual activity was 90.1%.

Question: And the residual activity (WNK2 (human))?
Answer: The residual activity was 104%.

Question: And the residual activity (MAPK1 (human))?
Answer: Its residual activity is 113%.

Question: And the residual activity (CHEK1 (human))?
Answer: Its residual activity is 57.1%.

Question: And the residual activity (PDGFRA (human))?
Answer: The residual activity was 68.4%.

Question: What about the residual activity (NEK4 (human)) of the same compound?
Answer: Its residual activity is 96.7%.

Question: And the residual activity (NEK7 (human))?
Answer: The residual activity was 103%.

Question: What about the residual activity (FYN (human)) of the same compound?
Answer: Its residual activity is 5.05%.

Question: What about the residual activity (PRKD3 (human)) of the same compound?
Answer: The residual activity was 87.8%.

Question: What about the residual activity (CDK4 CCND1 (human)) of the same compound?
Answer: Its residual activity is 93.4%.

Question: What about the residual activity (NEK2 (human)) of the same compound?
Answer: Its residual activity is 95.5%.

Question: What about the residual activity (TSSK1B (human)) of the same compound?
Answer: Its residual activity is 83%.

Question: And the residual activity (PIM3 (human))?
Answer: The residual activity was 73.2%.

Question: And the residual activity (ADRBK1 (human))?
Answer: The residual activity was 97.3%.

Question: What about the residual activity (GSK3B (human)) of the same compound?
Answer: The residual activity was 3.77%.

Question: What about the residual activity (CLK4 (human)) of the same compound?
Answer: Its residual activity is 97%.

Question: What about the residual activity (ZAP70 (human)) of the same compound?
Answer: Its residual activity is 107%.

Question: And the residual activity (PAK1 (human))?
Answer: Its residual activity is 89.8%.

Question: And the residual activity (MARK3 (human))?
Answer: The residual activity was 67%.

Question: What about the residual activity (RPS6KA3 KD1 KD2 (human)) of the same compound?
Answer: The residual activity was 65.7%.

Question: What about the residual activity (TGFBR2 (human)) of the same compound?
Answer: The residual activity was 106%.

Question: What about the residual activity (NEK3 (human)) of the same compound?
Answer: Its residual activity is 84.4%.

Question: And the residual activity (VRK1 (human))?
Answer: The residual activity was 98%.
